test system: Wings of Aedes albopictus (female); assay: Contact angle against wings of mosquito; assay type: physicochemical; details: 0.5 μL of 3 mmol/kg aqueous solution, 25° C., one second after dropping, θ/2 method
Source text: Wings of Aedes albopictus (female) were collected, and 8 to 10 pieces of the collected wings were arranged without generating gaps on a double-sided tape (“NITTO TAPE”, manufactured by Nitto Denko Corporation).

Contact angle against wing of mosquito [°] | Molecule
79.1 | CCCCC(CC)COCC(O)CO (stereo not drawn) [e, 2-Ethylhexyl glyceryl ether]
111.0 | CCCCCCCCCCCCOS(=O)(=O)[O-].[Na+] [g, Sodium lauryl sulfate]
80.0 | Benzalkonium chloride
55.0 | C10-C14 alkyl glucoside [b]
54.0 | Polyoxyethylene(3) lauryl ether [i]
38.6 | Polyoxyethylene(5) lauryl ether
64.8 | Polyoxyethylene(9) lauryl ether [c]
71.9 | Polyoxyethylene(12) lauryl ether [d]
113.8 | Polyoxyethylene(19) lauryl ether [f]
116.4 | Polyoxyethylene(47) lauryl ether [j]

test system: not listed separately; assay: Reach amount of sprayed droplets; assay type: physicochemical; details: spray container A, horizontal distance 30 cm, per spraying (five trigger operations)
Experimental: A spray in which a 3 mmol/kg aqueous solution of the wetting agent shown in Table 1 was filled in a spray container A shown in Table 2 was prepared.
In the evaluation method described in the preceding section, one in which instead of the mesh net (3), a paper towel (“Kim Towel White”, manufactured by Nippon Paper Crecia Co., Ltd.) cut into a size of 6 cm×6 cm was stuck to the front face (11) of the frame (1) with a double-sided tape was prepared. Before the evaluation, the total weight of the frame (1) and the paper towel was measured, and then, the spray was fixed at a position where the horizontal distance d until the front face (11) of the frame (1) was 30 cm such that the tip of the spray nozzle (that is, the ejection port) (41) of the spray container (4) reached, and the trigger operation was performed five times toward the inside of the frame (1) to spray the aqueous solution. After spraying, the weights of the frame (1) and the paper towel were measured, and a reach amount of the sprayed droplets per spraying was calculated according to the following calculation equation.
(Reach amount of sprayed droplets (mg/cm^2 per time)={(Weights of frame and paper towel after spraying)−(Weights of frame and paper towel before spraying)}/(Area (36 cm^2) of paper towel)/(Spraying time (five times))
It can be judged that the wetting agent is one in which the larger the reach amount of sprayed droplets, the higher the straightness of the spray droplets when used for the flying pest exterminating composition, and the more excellent the action of capable of efficiently reaching the flying pests.

Reach amount of sprayed droplets of 3 mmol/kg aqueous solution [mg/cm^2] | Molecule
1.7 | CCCCC(CC)COCC(O)CO (stereo not drawn) [e, 2-Ethylhexyl glyceryl ether]
5.7 | CCCCCCCCCCCCOS(=O)(=O)[O-].[Na+] [g, Sodium lauryl sulfate]
3.1 | Benzalkonium chloride
1.7 | C10-C14 alkyl glucoside [b]
0.2 | Polyoxyethylene(3) lauryl ether [i]
0.5 | Polyoxyethylene(5) lauryl ether
2.4 | Polyoxyethylene(9) lauryl ether [c]
2.6 | Polyoxyethylene(12) lauryl ether [d]
3.2 | Polyoxyethylene(19) lauryl ether [f]
6.1 | Polyoxyethylene(47) lauryl ether [j]

test system: not listed separately; assay: Surface tension at 25° C. by the Wilhelmy method; assay type: physicochemical; details: 3 mmol/kg aqueous solution of the wetting agent, value 10 minutes after immersion
Source text: With respect to respective wetting agents described in Table 1, one obtained by dissolving each wetting agent in water to prepare an aqueous solution having a concentration of 3 mmol/kg was used as a measurement sample. With respect to a flying pest exterminating composition described of each of the Examples, the foregoing composition was used as it was as a measurement sample. These measurement samples were each poured into a glass-made Petri dish having a diameter of 6.4 cm and a depth of 3.8 cm, and after removing air bubbles on the water surface, the measurement was performed in the state that the resulting sample was allowed to stand still for 30 minutes or more. In the present measurement, using a surface tension balance “K100” (manufactured by KRÜSS GmbH), a platinum plate was kept immersed in the aforementioned aqueous solution in a depth of 1 mm, and a measured value 10 minutes after the immersion was taken as a value of the surface tension.

25° C. surface tension [mN/m] | Molecule
38.30 | CCCCC(CC)COCC(O)CO (stereo not drawn) [e, 2-Ethylhexyl glyceryl ether]
29.20 | CCCCCCCCCCCCOS(=O)(=O)[O-].[Na+] [g, Sodium lauryl sulfate]
32.68 | Benzalkonium chloride
29.61 | C10-C14 alkyl glucoside [b]
26.13 | Polyoxyethylene(3) lauryl ether [i]
27.34 | Polyoxyethylene(5) lauryl ether
31.82 | Polyoxyethylene(9) lauryl ether [c]
36.09 | Polyoxyethylene(12) lauryl ether [d]
42.13 | Polyoxyethylene(19) lauryl ether [f]
50.54 | Polyoxyethylene(47) lauryl ether [j]
